# Results from patent US8518988B2, “Polymorph of the hydrochloride of the (4-hydroxycarbamoyl-phenyl)-carbamic acid (6-dimethylamino methyl-2-naphthalenyl) ester” (Chemi SPA, priority 2010, dated 2013).
# What was measured:
# [1] = Comparative solubility in 0.9% sodium chloride solution (isotonic solution); format: physicochemical; conditions: 37° C.; for Solubility: 10 mg in 10 ml 0.9% sodium chloride solution, agitated 24 hours; for Relative solubility vs. form I: 0.9% sodium chloride solution, 24 hours
# Protocol: As a matter of fact, a comparative experiment between form I of the compound (A) (monohydrate prepared as described in U.S. Pat. No. 7,329,689) and form II of compound (A), subject of the present invention, was carried out.
# 10 mg of compound (A) in crystalline form I were agitated in 10 ml of a 0.9% sodium chloride solution (isotonic solution) at 37° C. for 24 hours. The concentration of the product in liquid phase was measured at the end.
# Table 1 indicates the obtained solubility data.
# [2] = Stability test of crystalline form at 40° C., 75% humidity, analysed by PXRD; format: physicochemical; conditions: thin layer on Petri dish, samples after 2, 7 and 15 days
# Protocol: FIG. 5 describes the profile of the stability diffractograms of ITF 2357 of form II at 40° C., 75% relative humidity at different times. In particular, the first diffractogram from the bottom is performed at time 0, the second diffractogram from the bottom is performed after 2 days, the third diffractogram from the bottom is performed after 7 days and the fourth diffractogram from the bottom is performed after 15 days.
# In detail, a sample of form II of ITF 2357 was deposited in a thin layer having a thickness of about 0.5 cm on a Petri dish and placed in an environment with a constant humidity of 75%, at a constant temperature of 40° C. for two weeks. Samples were taken after 2, 7 and 15 days and analysed through Powder X Ray Diffraction (PXRD). The results of such experiments were summarised in FIG. 5, where the diffractograms obtained from the samples of the various collections were indicated overlapped.
SMILES,Solubility [1] [µg/mL],Relative solubility vs. form I [1],Relative solubility vs. form I ([1]; listed as form II),Stability of the crystalline form (PXRD) [2]
"CN(C)Cc1ccc2cc(OC(=O)Nc3ccc(C(=O)NO)cc3)ccc2c1.Cl [Form I, hydrochloride of the (4-hydroxycarbamoyl-phenyl)-carbamic acid (6-dimethylamino methyl-2-naphtalenyl) ester, reference compound]",154,1.00,–,–
"CN(C)Cc1ccc2cc(OC(=O)Nc3ccc(C(=O)NO)cc3)ccc2c1.Cl [Form II, hydrochloride of the (4-hydroxycarbamoyl-phenyl)-carbamic acid (6-dimethylamino methyl-2-naphtalenyl) ester]",226,1.47,1.47,no modifications of the crystalline form was observed
